# Laboratory results as given in US7993884B2, “Beta-xylosidase for conversion of plant cell wall carbohydrates to simple sugars” (The United States of America as represented by the …, priority 2006, dated 2011).
# Where a chain is given by its changes, count along the chain named. Numbers in names are those of the source. Where “and” joins values, the source holds several entries; their conditions need not be identical. Equal entries are not always repeated. Entries after “also recorded” stand apart in the source; their conditions may differ. Where two headings read alike, the source gives them in different places.
# B1: Selenomonas ruminantium GA192 β-D-xylosidase (SXA, parent SEQ ID NO: 2) variant E186A (Pseudoselenomonas ruminantium; E186A) (protein)
# chain: MNIQNPVLKGFNPDPSIVRAGDDYYIATSTFEWFPGVQIHHSKDLVHWHLVAHPLSTTEFLDMKGNPDSGGIWAPDLSYADGKFWLIYTDVKVVDGMWKDCHNYLTTAEDIKGPWSKPILLNGAGFDASLFHDPSGKKYLVNMYWDQRVYHHNFYGIALQEYSVAEEKLIGKPEIIYKGTDIAYTAGPHLYYINDMYYLMTAEGGTTYQHSETIARSKTIHGPYEIQPDYPLLSAWKEVHNPLQKCGHASLVETQNGQWYLAHLTGRPLPAPAGFPSREREQHAFCPLGRETAIQKIEWQDGWPVVVGGQQGSLEVEAPDLPQQEWAPTYEERDDFDKDTLNINFQTLRIPFSEHLGSLTARPGFLRLYGRESLQSKFTQAHIARRWQSFNFDAGTSVEFSPNSFQQMAGLTCYYNTENWSSIHVTWNEEKGRIIDLVTADNGTFSMPLAGAEIPIPDEVKTVHFKVSVRGRIYQYAYSFDGETFHTLPIELPSWKLSDDYVRGGGFFTGAFVGINAIDITGTALPADFDYFTYKELD
# B2: Selenomonas ruminantium GA192 β-D-xylosidase (SXA, parent SEQ ID NO: 2) variant R290A (Pseudoselenomonas ruminantium; R290A) (protein)
# chain: B1 chain with A186E, R290A
# B3: Selenomonas ruminantium GA192 β-D-xylosidase (SXA, parent SEQ ID NO: 2) variant D14A (Pseudoselenomonas ruminantium; D14A) (protein)
# chain: B1 chain with D14A, A186E
# What was measured:
# SXA [1] = biological target: T1, SXA (Selenomonas ruminantium, UniProt O52575); test: SXA-catalyzed hydrolysis of 4NP-glycoside substrates, initial rates (Methods A and B);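 for all read-outs here: initial rates from 4-nitrophenol release, tracked by absorbance over roughly 0.3 min and converted using product-minus-substrate extinction differences, in 1 mL mixtures started by enzyme addition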; type: biochemical; conditions: for Km / kcat Rel. to η/ηo = 1: Exper. 2: MES pH 6.00, Method B
# Method: (§1) Two methods were employed for determining initial rates. […] Initial rates were calculated from fitting the absorbance readings versus time to a line (minimum of 4 points per reaction progression) and by using an extinction coefficient of 17.4 mM^−1 cm^−1. In Method B (continuous monitoring), temperature-equilibrated reactions (1 mL) were monitored at 380 nm (for pH values below 6) or 400 nm (for pH values of 6 and above). Reactions were generally monitored 0.3 min for initial rate determinations. Delta extinction coefficients (product-substrate) used for molar conversion were determined by subtracting the absorbance of substrate (at pH 5 so even very minor contaminating 4NP would not contribute) from the absorbance of 4NP for each reaction condition. […] The concentration of 4NP substrates was determined by incubating the substrate with excess enzyme until an end point was reached, adding an aliquot (0.01 to 0.1 mL) to 0.1 M NaOH, recording the absorbance at 400 nm and using the extinction coefficient of 18.3 cm^−1mM^−1. Unless indicated otherwise, for both Methods A and B, reactions were initiated by adding a small aliquot of enzyme (generally 7 μl of enzyme diluted into 10 mM sodium phosphate, pH 7.0, and incubated on wet ice or at ˜25° C.) to the 1-mL, temperature-equilibrated (25° C.) reaction mixtures. For pH studies, buffers of constant ionic strength (I=0.3 M), adjusted with NaCl, were used as indicated: 100 mM succinate-NaOH (pH 4.3-6), 100 mM sodium phosphate (pH 6-8), 30 mM sodium pyrophosphate (pH 8-9), glycine-NaOH (pH 9) and glycylglycine-NaOH (pH 9).
# SXA [2] = biological target: T1, SXA; test: biochemical; conditions: for Km: read-out: Km^4NPA, pH 5.3, 25° C.; for Ki: Ki^D-xylose, inhibition of SXA-catalyzed hydrolysis of 4NPA
# SXA [3] = biological target: T1, SXA; conditions: pH 5.3 and 25° C., relative to A2
# Method: (§2) Samples (25 μL) were injected onto the column equilibrated with 0.1 M NaOH and developed with a 15-min linear gradient (0.1 M NaOH to 15 mM sodium acetate) at ˜25° C. and a flow rate of 1 mL min^−1.
# (§3) Before (time=0 min) and after (time=1-6 min) initiating reactions with enzyme (7 μL), samples (0.05-0.1 mL) were removed and quenched with an equal volume of 0.5 M acetic acid and frozen. Following lyophilization, samples were dissolved in H2O and analyzed by HPLC. […] Results from two replicate reactions were combined to provide data points for the progress curves.
# (§4) Before and after addition of enzyme (7 μL), 25-μl aliquots of the reaction mixtures were directly injected onto the HPLC column for quantification of product L-arabinose.
# [4] = biological target: Selenomonas ruminantium GA192 β-D-xylosidase (SXA, parent SEQ ID NO: 2) variant D14A (Pseudoselenomonas ruminantium, UniProt O52575, D14A); test: Steady-state kinetics of SXA mutant D14A with 4NP substrates
# Method: (§5) Site-directed mutagenesis was performed using the QuikChange site-directed mutagenesis kit (Stratagene) according the manufacturer's instructions. […] Complete sequences were determined on a 3700 sequencer (Applied Biosystems) using T7 promoter and specific primers to confirm that only the intended mutations had been introduced. Lasergene software (DNAStar) was used to analyze the sequence data. pSRA1 and its mutated plasmids were used for the transformation of E. coli BL21(DE3). Transformants were inoculated to 50 mL Luria-Bertani (LB) broth supplemented with 50 mg ampicillin/mL and the flask was shaken overnight at 250 rpm and 37° C. Twenty mL of the overnight culture were transferred to a 2.8-liter baffled flask containing 1.0 liter SOB medium [2.0% tryptone, 0.5% yeast extract, 0.05% NaCl, 0.0186% KCl (all in wt/vol) and 10 mM MgSO4] supplemented with 50 mg ampicillin/mL. The culture was shaken at 250 rpm and 37° C. […] Cells were harvested by centrifugation and cell pellets were stored at −80° C. until use.
# (§6) Initial purification steps and diafiltration steps were performed at 4° C. Chromatography was at room temperature (˜24° C.). Cells were thawed, suspended in 40 mL of 50 mM Tris-HCl, pH 7.5 (Buffer A) containing Complete protease inhibitor cocktail (Roche) and disrupted by sonication. Following centrifugation, the supernatant was brought to 30% saturation with respect to ammonium sulfate and centrifuged. […] The column was washed until absorbance at 280 nm of the eluate became minimal (˜200 mL) and developed with a 500-mL linear gradient (Buffer A+30% saturated ammonium sulfate to Buffer A).
# (§7) Two methods were employed for determining initial rates. […] Initial rates were calculated from fitting the absorbance readings versus time to a line (minimum of 4 points per reaction progression) and by using an extinction coefficient of 17.4 mM^−1 cm^−1. […] The concentration of 4NP substrates was determined by incubating the substrate with excess enzyme until an end point was reached, adding an aliquot (0.01 to 0.1 mL) to 0.1 M NaOH, recording the absorbance at 400 nm and using the extinction coefficient of 18.3 cm^−1mM^−1. Unless indicated otherwise, for both Methods A and B, reactions were initiated by adding a small aliquot of enzyme (generally 7 μl of enzyme diluted into 10 mM sodium phosphate, pH 7.0, and incubated on wet ice or at ˜25° C.) to the 1-mL, temperature-equilibrated (25° C.) reaction mixtures. For pH studies, buffers of constant ionic strength (I=0.3 M), adjusted with NaCl, were used as indicated: 100 mM succinate-NaOH (pH 4.3-6), 100 mM sodium phosphate (pH 6-8), 30 mM sodium pyrophosphate (pH 8-9), glycine-NaOH (pH 9) and glycylglycine-NaOH (pH 9).
# [5] = biological target: Selenomonas ruminantium GA192 β-D-xylosidase (SXA, parent SEQ ID NO: 2) variant E186A (Pseudoselenomonas ruminantium, UniProt O52575, E186A); test: Steady-state kinetics of SXA mutant E186A with 4NP substrates
# Method: as §5, §6, §7
# [6] = biological target: T2, Selenomonas ruminantium GA192 β-D-xylosidase (SXA), wild type, SEQ ID NO: 2 (Pseudoselenomonas ruminantium, UniProt O52575); test: Steady-state kinetics of SXA with 4NPX2, A2 and X2-X6 by HPLC (Example 1)
# Method: as §2, §3, §4
# (§8) Quenched samples were analyzed by HPLC for D-xylose. Initial rates were determined from linear regressions of [D-xylose] produced versus reaction time. […] Four 1-mL replicate reactions were conducted to supply data points for the progress curves. Two parallel reactions were conducted, under the same conditions with the same reaction components, the absorbance at 400 nm was continuously monitored (20 min) for 4NP production, and the absorbance values were converted to mM 4NP concentrations by using a delta extinction coefficient (product-substrate) of 8.22 mM^−1 cm^−1.
# [7] = biological target: T2, Selenomonas ruminantium GA192 β-D-xylosidase (SXA), wild type, SEQ ID NO: 2; test: Steady-state kinetics of SXA with 4NP-glycosides (Example 1, Methods A and B)
# Method: Kinetics with 4NP Substrates
# as §1
# SXA [8] = biological target: T1, SXA; conditions: 100 mM sodium phosphate, pH 7.0, 25° C., not well determined
# Method: as §2, §8
# SXA [9] = biological target: T1, SXA; test: biochemical; conditions: inhibition of SXA-catalyzed hydrolysis of 4NPX, I=0.3 M, competitive
# Method: Reactions were monitored continuously for 0.3 min at 400 nm to determine initial rates. Initial-rate data were fitted to equation 6, where v is the initial rate, kcat is the rate of the reaction when saturated with substrate, S is the substrate concentration, Km is the Michaelis constant, I is the inhibitor concentration (e.g., D-glucose), and Ki is the dissociation constant of inhibitor from the enzyme-inhibitor complex.
# SXA [10] = biological target: T1, SXA; conditions: pH 5.3, 55° C.; for KI (inactivation): read-out: Ki, dissociation constant from protection against thermal inactivation, kobs fitted to equation 4
# Method: Initial rates were determined by monitoring reactions continuously at 400 nM for 0.3 min. […] Relative activity remaining data were fitted to equation 3, which describes a first order decay: A is the relative activity remaining at varied times of preincubation, A0 is the relative activity remaining at time zero of the preincubation, kobs is the first order rate constant, and t is the time of preincubation. Apparent affinities for D-xylose and D-glucose were determined by fitting kobs values from the monosaccharide protection studies to equation 4 where kobs is the observed first order rate constant for the decay, k0 is the first order rate constant in the absence of ligand (e.g., D-xylose), I is the ligand concentration in the preincubation mixture, and Ki is the dissociation constant of ligand from the enzyme-ligand complex.
# Ligand protection studies contained varied concentrations of D-xylose or D-glucose in the pH 5.3 preincubation buffer at 55° C.
# [11] = biological target: β-D-xylosidase/α-L-arabinofuranosidase (Selenomonas ruminantium, UniProt O52575); test: Inhibition of the enzyme by monosaccharides and ethanol (detailed description); type: biochemical, Selenomonas ruminantium GA192
# SXA [12] = biological target: T1, SXA; test: pH stability of SXA and protection from low pH inactivation at pH 4.0 by monosaccharides; conditions: pH 4.0, 25° C.
# Method: Buffers of constant ionic strength (I=0.3 M), adjusted with NaCl, were used as indicated: 100 mM succinate-NaOH (pH 3.5-6), 100 mM sodium phosphate (pH 6-8), 30 mM sodium pyrophosphate (pH 8-9), and 100 mM glycine-NaOH (pH 9-10). […] Initial rates were determined by monitoring reactions continuously at 400 nM for 0.3 min. […] Relative activity remaining data were fitted to equation 3, which describes a first order decay: A is the relative activity remaining at varied times of preincubation, A0 is the relative activity remaining at time zero of the preincubation, kobs is the first order rate constant, and t is the time of preincubation. Apparent affinities for D-xylose and D-glucose were determined by fitting kobs values from the monosaccharide protection studies to equation 4 where kobs is the observed first order rate constant for the decay, k0 is the first order rate constant in the absence of ligand (e.g., D-xylose), I is the ligand concentration in the preincubation mixture, and Ki is the dissociation constant of ligand from the enzyme-ligand complex.
# SXA [13] = biological target: T1, SXA; test: biochemical; conditions: pH 5.3, 25° C.
# [14] = substrate: O=[N+]([O-])c1ccc(O[C@@H]2OC[C@@H](O)[C@H](O)[C@H]2O)cc1; test: purified protein, by the assay type; conditions: other: 100 mM succinate-NaOH, pH 5.3, 25° C, Method A
# Method: as §5, §6, §7
# [15] = substrate: O=[N+]([O-])c1ccc(O[C@@H]2O[C@@H](CO)[C@H](O)[C@H]2O)cc1; test: purified protein, by the assay type; conditions: other: 100 mM succinate-NaOH, pH 5.3, 25° C, Method A
# Method: as §5, §6, §7
# [16] = I=0.3 M, 25° C., Eq. 7 (4NPX), Eq. 5 (4NPA)
# [17] = 100 mM succinate-NaOH, pH 5.3, 25° C, Method A
molecule,measurement,setting,value
"O=[N+]([O-])c1ccc(O[C@@H]2O[C@@H](CO)[C@H](O)[C@H]2O)cc1 [4NPA, 4-nitrophenyl-α-L-arabinofuranoside]",pH-independent kcat/Km,SXA [1],5.10±0.07 s^−1 mM^−1
same,Relative Rate,"SXA [1]; 5 mM 4NP glycoside, 100 mM succinate-NaOH, pH 5.3, 25° C., Method A, initial rate relative to 4NPX",0.101 ± 0.003
same,pH-independent 1/Km,"SXA [1]; 1/Km versus pH, Eq. 4 (4NPX), Eq. 5 (4NPA)",1.60±0.02 mM^−1
same,Km,SXA [1]; η/ηo 1.00,745 ± 36 µM
same,kcat Rel. to η/ηo = 1,SXA [1]; η/ηo 1.00,1.00
same,Km,SXA [1]; η/ηo 6.85 (50% sucrose),754 ± 101 µM
same,kcat Rel. to η/ηo = 1,SXA [1]; η/ηo 6.85 (50% sucrose),0.960 ± 0.040
same,pKa of kcat versus pH (single group),"SXA [1]; I=0.3 M, 25° C., Eq. 4",3.6 and 3.64±0.10
same,pKa1 of kcat/Km versus pH,"SXA [1]; I=0.3 M, 25° C., Eq. 5",~5.0 and 5.06±0.02
same,pKa2 of kcat/Km versus pH,"SXA [1]; I=0.3 M, 25° C., Eq. 5",7.20±0.02
same,pKa1 of 1/Km versus pH,SXA [1]; [16],5.00±0.03
same,pKa2 of 1/Km versus pH,SXA [1]; [16],7.16±0.03
same,binding to dianionic SXA (D14^−E186^−),SXA [1]; from pH dependencies,"weakly, if at all; also recorded: no affinity"
same,Km,SXA [2]; FIG. 22A experiment (D-xylose α:β 6:1),880 ± 130 µM
same,Km,SXA [2]; FIG. 22B experiment (D-xylose α:β 1:2.5),900 ± 13 µM
same,relative kcat values,SXA [3],34
same,kcat,[4]; [17],0.000936 ± 0.000012 s⁻¹
same,factor by which kcat is degraded vs wild type,"[4]; pH 5.3, 25° C.",3000
same,kcat,[5]; [17],0.000239 ± 0.000008 s⁻¹
same,factor by which kcat is degraded vs wild type,"[5]; pH 5.3, 25° C.",11000
same,kcat factor between 4NPA and A2,[6]; 4NPA larger / A2 reduced,36 fold
same,relative kcat value,"[6]; pH 5.3, 25° C, A2 = 1",34
same,kcat,"[7]; 100 mM MES-NaOH, pH 6.00, 25° C, Method B, 50% sucrose, η/ηo 6.85",2.87 ± 0.12 s⁻¹
same,kcat,"[7]; 100 mM MES-NaOH, pH 6.00, 25° C, Method B, η/ηo 1.00",2.99 ± 0.05 s⁻¹
same,kcat,"[7]; 100 mM succinate-NaOH, pH 5.3, 25° C, Method A, no sucrose",2.68 ± 0.06 s⁻¹
same,"affinity of dianionic SXA (D14^−E186^−), higher than that of monoanionic SXA (D14^−E186^H)",[7]; from pH dependence of 1/Km,no affinity
same,kcat Rel. to η/ηo = 1,"[7]; pH 6.00, η/ηo 6.85",0.960 ± 0.040
"O=[N+]([O-])c1ccc(O[C@@H]2OC[C@@H](O[C@@H]3OC[C@@H](O)[C@H](O)[C@H]3O)[C@H](O)[C@H]2O)cc1 [4NPX2, 4-Nitrophenyl-β-D-xylobioside]",kcat (4NPX2 to 4NPX + D-xylose),SXA [8],50.5 ± 25.7 s⁻¹
same,Km,SXA [8]; read-out: Km (4NPX2 to 4NPX + D-xylose),690 ± 430 µM
O=C[C@H](O)[C@@H](O)[C@H](O)[C@H](O)CO [D-glucose],Ki,"SXA [9]; pH 5.3, 25° C.",79 ± 2.3 mM
same,Ki,"SXA [9]; pH 7.0, 25° C.",34.5 ± 0.7 mM
same,Ki,"SXA [9]; pH 9.0, 25° C.",18.7 ± 0.6 mM
same,kobs of SXA inactivation in presence of monosaccharide,SXA [10]; 93.5 mM,0.00949 ± 0.00069 min⁻¹
same,kobs of SXA inactivation in presence of monosaccharide,SXA [10]; 187 mM,0.00588 ± 0.00077 min⁻¹
same,kobs of SXA inactivation in presence of monosaccharide,SXA [10]; 280 mM,0.00445 ± 0.00081 min⁻¹
same,kobs of SXA inactivation in presence of monosaccharide,SXA [10]; 374 mM,0.00336 ± 0.00095 min⁻¹
same,KI (inactivation),SXA [10],56.1 ± 0.8 mM
same,Ki,[11],27 ± 0.4 mM
same,kobs of SXA inactivation in presence of monosaccharide,SXA [12]; 234 mM,0.0210 ± 0.0016 min⁻¹
same,kobs of SXA inactivation in presence of monosaccharide,SXA [12]; 467 mM,0.0124 ± 0.0007 min⁻¹
O=C[C@H](O)[C@@H](O)[C@H](O)CO [D-xylose],Ki,SXA [1]; read-out: Ki(xylose),7.4 mM
same,Ki,"SXA [9]; pH 4.3, 25° C.",43.5 ± 1.1 mM
same,Ki,"SXA [9]; pH 5.3, 25° C.",7.62 ± 0.26 mM
same,Ki,"SXA [9]; pH 7.0, 25° C.",3.82 ± 0.06 mM
same,Ki,"SXA [9]; pH 9.0, 25° C.",3.21 ± 0.14 mM
same,kobs of SXA inactivation in presence of monosaccharide,SXA [10]; 18.7 mM,0.0132 ± 0.0010 min⁻¹
same,kobs of SXA inactivation in presence of monosaccharide,SXA [10]; 46.7 mM,0.00649 ± 0.00087 min⁻¹
same,kobs of SXA inactivation in presence of monosaccharide,SXA [10]; 93.5 mM,0.00326 ± 0.00056 min⁻¹
same,kobs of SXA inactivation in presence of monosaccharide,SXA [10]; 280 mM,0.000917 ± 0.00033 min⁻¹
same,KI (inactivation),SXA [10],17.6 ± 1.8 mM
same,Ki,"SXA [13]; Ki^D-xylose, inhibition of SXA-catalyzed hydrolysis of 4NPX, Eq. 3 noncompetitive (mixed), D-xylose α:β 1:2.5",9.63 ± 0.3 mM
same,Ki,"SXA [13]; Kis^D-xylose·4NPX, Eq. 3",15.9 ± 2.1 mM
same,Ki,"SXA [2]; D-xylose α:β 1:2.5, pH 7.0 (100 mM sodium phosphate, I=0.3 M), 25° C.",5.15 ± 0.08 mM
same,Ki,"SXA [2]; D-xylose α:β 6:1, pH 7.0 (100 mM sodium phosphate, I=0.3 M), 25° C.",4.97 ± 0.05 mM
same,Ki,"SXA [2]; D-xylose α:β ratio of 1:2.5, pH 5.3, 25° C., competitive",11.8 ± 0.3 mM
same,Ki,"SXA [2]; D-xylose α:β ratio of 6:1, pH 5.3, 25° C., competitive",11.9 ± 0.3 mM
same,Ki,[11]; read-out: Ki,4.2 ± 0.1 mM
same,kobs of SXA inactivation in presence of monosaccharide,SXA [12]; 46.7 mM,0.0335 ± 0.0008 min⁻¹
same,kobs of SXA inactivation in presence of monosaccharide,SXA [12]; 93.5 mM,0.0186 ± 0.0004 min⁻¹
same,kobs of SXA inactivation in presence of monosaccharide,SXA [12]; 280 mM,0.00614 ± 0.00036 min⁻¹
same,KI (inactivation),"SXA [12]; read-out: Ki, dissociation constant from protection against low pH inactivation, kobs fitted to equation 4",31.7 ± 2.8 mM
O=C[C@H](O)[C@@H](O)[C@@H](O)CO [L-arabinose],Ki,[11]; read-out: Ki,20 ± 0.5 mM
B1,Km,[14],1100 ± 50 µM
same,Km,[15],1320 ± 110 µM
B2,Km,[14]; not well determined (highest 4NPX 5 mM),50300 ± 8800 µM
B3,Km,[14],777 ± 36 µM
same,Km,[15],771 ± 29 µM
